Test results from patent US6558900B2, “Regulation of apoptosis and in vitro model for studies thereof” (Emory University, priority 1996, dated 2003).

Tested on: CPP32
Test: Activation of endogenous CPP32 in HeLa cell S-100 (Western blot; cleavage of 35S-labeled PARP and SREBP-2)
Format: biochemical, human
Details: 1 mM nucleotide
Description: FIGS. 1A-1D illustrate dATP-dependent activation of CPP32 and DNA fragmentation in vitro. Aliquots (10 μl) of HeLa cell S-100 (50 μg) were incubated alone (lane 1), in the presence of 1 mM ATP (lane 2), or in the presence of 1 mM dATP (lane 3) at 30° C. for 1 hr in a final volume of 20 μl of buffer A. FIG. 1A, samples were subjected to SDS-PAGE and transferred to a nitrocellulose filter, probed with a monoclonal anti-CPP32 antibody, and the antigen/antibody complex was visualized by the ECL method. The filter was exposed to Kodak X-OMAT AR X-ray film for 1 min. In FIG. 1B, an aliquot of 10 μl of in vitro translated, ^35S-labeled PARP was added to each reaction. After 5 min, the samples were subjected to SDS-PAGE and transferred to a nitrocellulose filter. The filter was exposed to film for 2 hr at room temperature. In FIG. 1C, a 5 μl aliquot of in vitro translated, ^35S-labeled SREBP-2 was added to each reaction. After incubation at 30° C. for 30 min, the samples were subjected to SDS-PAGE, the gel was dried and exposed to film for 2 hr at room temperature. In FIG. 1D, a 50 μlaliquot of HeLa cell S-100 (250 μg) was incubated with 6 μl Hamster Liver nuclei in the absence (lane 1), or presence of 1 mM ATP (lane 2) or dATP (lane 3) for 2 hr at 37° C. in a final volume of 60 μl of buffer A. DNA was isolated as described in the Examples and size-separated by agarose gel electrophoresis (2% agarose), and the DNA was visualized by ethidium bromide staining.
Activation of CPP32 and DNA fragmentation are two well characterized biochemical markers of apoptosis and its initiation. With the goal of producing an in vitro system that duplicates apoptosis, we prepared 100,000×g cytosolic supernatant (S-100) from suspension cultures of HeLa cells. The activation of CPP32 is the result of cleavage of its 32 kDa precursor into the 20 kDa NH2-terminal fragment and 11 kDa COOH-terminal fragment [Nicholson et al. (1995) supra], thus the activation of CPP32 in the HeLa cell S-100 was monitored by Western blot analysis using a monoclonal antibody against the 20 kDa fragment of CPP32 (FIG. 1A). The enzymatic activity of CPP32 was assayed by measuring the cleavage of two ^35S-labeled substrates, PARP (FIG. 1B) and SREBP-2 (FIG. 1C). DNA fragmentation was assayed by incubating the HeLa cell S-100 with nuclei isolated from hamster liver followed by genomic DNA extraction and analysis by agarose gel electrophoresis. […] The sizes of the cleaved products of PARP and SREBP-2 were the same as observed in cells undergoing apoptosis [Kaufmann et al. (1993) Cancer Res. 53, 3976-3985; Wang et al. (1996) supra]. […]

## Nc1ncnc2c1ncn2[C@H]1C[C@H](O)[C@@H](COP(=O)(O)OP(=O)(O)OP(=O)(O)O)O1 [dATP, deoxyadenosine-5-triphosphate]
  cleavage of 35S-labeled PARP by activated extract: readily cleaved PARP into 85 kDa and 24 kDa fragments
  cleavage of 35S-labeled SREBP-2 by activated extract: SREBP-2 into 55 kDa and 70 kDa fragments
30° C., 1 hr, Western blot
  activation of CPP32 in HeLa cell S-100: most of the CPP32 in the HeLa cell S-100 was activated
